Test results: ChEMBL document CHEMBL1201862, “PubChem BioAssay data set” (2004)
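Compound exposure: 48 hours, 5 concentrations, 96-well plates. GI50 = concentration required for 50% inhibition of growth.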 Calls of active or inactive are those of the source. Rule as the data show it: active = GI50 up to about 1.1 µM and inactive = higher.

Key:
Experiment in all cases: growth of human tumour cells (NCI), 48 h
TK-10 = tested on: TK-10
786-0 = tested on: 786-0
EKVX = tested on: EKVX
COLO 205 = tested on: COLO 205
OVCAR-8 = tested on: OVCAR-8
HCT-116 = tested on: HCT-116
UO-31 = tested on: UO-31
U-251 = tested on: U-251
Malme-3M = tested on: Malme-3M
SF-268 = tested on: SF-268
SF-295 = tested on: SF-295
HOP-92 = tested on: HOP-92
LOX IMVI = tested on: LOX IMVI
NCI-H522 = tested on: NCI-H522
RXF 393 = tested on: RXF 393
SNB-75 = tested on: SNB-75

Measured: GI50

COc1cc2c(cc1OC)C(=O)N1CCCC1C(=O)S2 (stereo not drawn)
inactive: TK-10 > 100 µM | 786-0 > 100 µM | EKVX > 100 µM | COLO 205 > 100 µM | OVCAR-8 > 100 µM | HCT-116 > 100 µM | UO-31 > 100 µM | U-251 > 100 µM | Malme-3M > 100 µM | SF-268 > 100 µM | SF-295 > 100 µM | HOP-92 > 100 µM | LOX IMVI > 100 µM | NCI-H522 > 100 µM | RXF 393 > 100 µM

CCC(CC)n1c(C)nc2c1C(=O)c1ccccc1C2=O
inactive: TK-10 35.9 µM | 786-0 57.1 µM | EKVX 70.5 µM | COLO 205 26.9 µM | OVCAR-8 40.5 µM | HCT-116 19.3 µM | SNB-75 20.6 µM | UO-31 19.5 µM | U-251 36.5 µM | Malme-3M 26.1 µM | SF-268 49.2 µM | SF-295 39.4 µM | HOP-92 22.5 µM | LOX IMVI 19.5 µM | NCI-H522 48.1 µM | RXF 393 35.2 µM

COc1ccc([C@H]2CC(=O)NCCCCN2)cc1
inactive: TK-10 > 100 µM | 786-0 > 100 µM | EKVX > 100 µM | COLO 205 > 100 µM | OVCAR-8 > 100 µM | HCT-116 > 100 µM | SNB-75 55.2 µM | UO-31 > 100 µM | U-251 > 100 µM | Malme-3M > 100 µM | SF-268 > 100 µM | SF-295 > 100 µM | HOP-92 57.1 µM | NCI-H522 > 100 µM | RXF 393 > 100 µM

O=C1CCC(=O)c2c1c(O)c1ccncc1c2O
inactive: TK-10 18.4 µM | 786-0 15.7 µM | EKVX 27.8 µM | COLO 205 7.94 µM | OVCAR-8 10 µM | HCT-116 14.7 µM | SNB-75 18.7 µM | UO-31 15.5 µM | U-251 23.9 µM | Malme-3M 16 µM | SF-295 18 µM | HOP-92 22.8 µM | LOX IMVI 13.8 µM | NCI-H522 12 µM | RXF 393 21 µM

Cc1ccc(/N=N/c2ccc(N(CCC#N)CCC#N)cc2C)c(Br)c1
inactive: TK-10 16.7 µM | 786-0 17 µM | EKVX 41 µM | COLO 205 38.1 µM | OVCAR-8 49.3 µM | SNB-75 11.3 µM | UO-31 16.9 µM | U-251 19.1 µM | Malme-3M 44.2 µM | SF-268 21.1 µM | SF-295 18.7 µM | LOX IMVI 3.33 µM | NCI-H522 18.5 µM | RXF 393 9.27 µM

CC1COS(=O)O1 (stereo not drawn)
inactive: TK-10 > 100 µM | 786-0 > 100 µM | EKVX > 100 µM | COLO 205 > 100 µM | OVCAR-8 > 100 µM | HCT-116 > 100 µM | SNB-75 63 µM | UO-31 > 100 µM | Malme-3M > 100 µM | SF-268 > 100 µM | SF-295 > 100 µM | HOP-92 > 100 µM | LOX IMVI > 100 µM | NCI-H522 > 100 µM

O=C1OC(=O)c2c1c(-c1ccccc1)cn2-c1ccc(Cl)cc1
inactive: TK-10 > 100 µM | 786-0 > 100 µM | EKVX 41.1 µM | COLO 205 10.6 µM | OVCAR-8 > 100 µM | HCT-116 > 100 µM | SNB-75 > 100 µM | UO-31 > 100 µM | U-251 87.3 µM | Malme-3M > 100 µM | SF-268 > 100 µM | SF-295 > 100 µM | HOP-92 > 100 µM | LOX IMVI 48.1 µM | NCI-H522 67.3 µM

N/N=C(\Cc1ccccc1)NN=C(N)N
inactive: TK-10 > 100 µM | 786-0 > 100 µM | EKVX > 100 µM | COLO 205 > 100 µM | OVCAR-8 > 100 µM | HCT-116 > 100 µM | SNB-75 > 100 µM | UO-31 > 100 µM | U-251 > 100 µM | Malme-3M > 100 µM | SF-268 > 100 µM | SF-295 > 100 µM | HOP-92 > 100 µM | LOX IMVI > 100 µM | NCI-H522 32.1 µM

COc1nc(NC2OC(COC(C)=O)C(OC(C)=O)C(OC(C)=O)C2OC(C)=O)c(-c2csc(N)n2)c(=O)n1C (stereo not drawn)
inactive: TK-10 > 100 µM | 786-0 20.5 µM | COLO 205 > 100 µM | OVCAR-8 31.8 µM | HCT-116 43.8 µM | SNB-75 18.4 µM | UO-31 52.8 µM | U-251 61.5 µM | Malme-3M 26.8 µM | SF-268 25.9 µM | SF-295 68.4 µM | HOP-92 28.4 µM | LOX IMVI > 100 µM | NCI-H522 46.5 µM

NC(=O)N/N=C(\CC1OC(=O)c2ccccc21)c1ccco1 (stereo not drawn)
inactive: TK-10 > 100 µM | 786-0 92.9 µM | EKVX > 100 µM | COLO 205 > 100 µM | HCT-116 > 100 µM | SNB-75 > 100 µM | UO-31 > 100 µM | Malme-3M > 100 µM | SF-268 > 100 µM | SF-295 > 100 µM | HOP-92 > 100 µM | LOX IMVI > 100 µM | NCI-H522 > 100 µM | RXF 393 > 100 µM

N#C/C(=C\c1ccc2ccccc2c1)c1ccccc1
inactive: TK-10 34.3 µM | 786-0 18.9 µM | COLO 205 17.8 µM | OVCAR-8 32.4 µM | HCT-116 30.3 µM | SNB-75 23.2 µM | UO-31 25.5 µM | U-251 23 µM | SF-268 39.6 µM | SF-295 20.2 µM | HOP-92 65.9 µM | LOX IMVI 53.3 µM | NCI-H522 12 µM | RXF 393 38.8 µM

COC(=O)C1=NC(=S)NC(c2ccccc2)C1c1nc2ccccc2o1 (stereo not drawn)
inactive: TK-10 > 50 µM | 786-0 > 50 µM | EKVX > 50 µM | COLO 205 > 50 µM | OVCAR-8 > 50 µM | HCT-116 > 50 µM | UO-31 > 50 µM | U-251 > 50 µM | Malme-3M > 50 µM | SF-268 > 50 µM | SF-295 > 50 µM | HOP-92 > 50 µM | LOX IMVI > 50 µM | NCI-H522 > 50 µM | RXF 393 20.1 µM

Cc1csc(CCC(N)C(=O)O)n1 (stereo not drawn)
inactive: TK-10 > 100 µM | 786-0 > 100 µM | EKVX > 100 µM | COLO 205 > 100 µM | OVCAR-8 > 100 µM | HCT-116 > 100 µM | SNB-75 > 100 µM | UO-31 > 100 µM | U-251 > 100 µM | Malme-3M > 100 µM | SF-295 > 100 µM | HOP-92 > 100 µM | LOX IMVI > 100 µM | NCI-H522 > 100 µM | RXF 393 > 100 µM

CN(C(=O)C12C3C4C1C1C2C3C41C(N)=O)C(C)(C)C (stereo not drawn)
inactive: TK-10 > 100 µM | 786-0 > 100 µM | EKVX > 100 µM | COLO 205 > 100 µM | OVCAR-8 > 100 µM | HCT-116 > 100 µM | SNB-75 > 100 µM | UO-31 > 100 µM | Malme-3M > 100 µM | SF-268 > 100 µM | SF-295 > 100 µM | HOP-92 > 100 µM | NCI-H522 > 100 µM

Cc1ccc(NC(=O)CCC(CC(=O)C(C)(C)C)=NNC(=O)C(=O)NN)cc1C
inactive: TK-10 > 100 µM | 786-0 > 100 µM | EKVX > 100 µM | COLO 205 > 100 µM | OVCAR-8 > 100 µM | SNB-75 > 100 µM | UO-31 > 100 µM | Malme-3M > 100 µM | SF-268 > 100 µM | SF-295 > 100 µM | LOX IMVI > 100 µM | NCI-H522 > 100 µM | RXF 393 > 100 µM

O=C(/C=C/c1ccc(Cl)c(Cl)c1)c1cccc2ccccc12
inactive: TK-10 16.8 µM | 786-0 3.4 µM | EKVX 18.4 µM | COLO 205 12.3 µM | OVCAR-8 2.16 µM | HCT-116 3.23 µM | SNB-75 3.51 µM | UO-31 19.6 µM | U-251 2.74 µM | Malme-3M 18.4 µM | SF-268 4.52 µM | SF-295 11.4 µM | HOP-92 16.8 µM | NCI-H522 2.97 µM

COc1ccc(/C=C/C(=O)c2sc(N)nc2C)cc1
inactive: TK-10 > 100 µM | 786-0 > 100 µM | EKVX > 100 µM | COLO 205 > 100 µM | OVCAR-8 > 100 µM | SNB-75 > 100 µM | UO-31 > 100 µM | U-251 > 100 µM | Malme-3M > 100 µM | SF-268 > 100 µM | SF-295 > 100 µM | HOP-92 > 100 µM | LOX IMVI > 100 µM | NCI-H522 > 100 µM | RXF 393 > 100 µM

CC(=O)OCC1=CC2CCC3C(C)(CCC[C@]3(C)COC(C)=O)C23CC[C@H]1C3 (stereo partly drawn)
inactive: TK-10 > 100 µM | 786-0 57.3 µM | EKVX 83 µM | COLO 205 24 µM | OVCAR-8 53.7 µM | HCT-116 38.8 µM | SNB-75 34.9 µM | UO-31 53.7 µM | U-251 27.9 µM | Malme-3M 52.8 µM | SF-268 > 100 µM | SF-295 37.3 µM | HOP-92 27.8 µM | LOX IMVI 25 µM | NCI-H522 18.8 µM | RXF 393 46.5 µM

CCCCCCCCCCCCn1[nH]c(C)c(C(=S)SCCCCCCCC)c1=O
inactive: TK-10 64.6 µM | 786-0 45.4 µM | EKVX 43.9 µM | COLO 205 37.2 µM | OVCAR-8 30.7 µM | HCT-116 29.6 µM | SNB-75 > 100 µM | UO-31 60.3 µM | U-251 45 µM | Malme-3M > 100 µM | SF-268 > 72.6 µM | SF-295 > 63 µM | HOP-92 > 100 µM | LOX IMVI 48.8 µM | NCI-H522 31.9 µM | RXF 393 37.3 µM
